“Also recorded” adds a separate entry of the source.

The nature of data set [1]: Pharmacokinetic study, single-dose oral administration of tetrabenazine 25 mg to healthy adult male volunteers: plasma levels of tetrabenazine and DHTBZ isomers. Format: in vivo, human. The note with it: for Kel: N=08, unit not given; for status as metabolite of tetrabenazine in humans: single and multiple dose tetrabenazine 25 mg, Tables 1 and 2. As for the experimental part:
(§1) A pharmacokinetic study was carried out in healthy adult male volunteers under fasting conditions at a dose of single and multiple oral administration of 25 mg tablets once a day to ascertain the plasma levels of +/−α and +/−β dihydro-tetrabenazine.
Table 1 summarises the pharmacokinetic data obtained following single-dose oral administration of tetrabenazine at a dose level of 25 mg (fasting, N=08).

The target of data set [2] is Chromaffin Granule Monoamine Transporter (Bos taurus, UniProt Q27963). The settings on record: cited from earlier work.
Chromaffin Granule Monoamine Transporter, sequence (Q27963 whole entry): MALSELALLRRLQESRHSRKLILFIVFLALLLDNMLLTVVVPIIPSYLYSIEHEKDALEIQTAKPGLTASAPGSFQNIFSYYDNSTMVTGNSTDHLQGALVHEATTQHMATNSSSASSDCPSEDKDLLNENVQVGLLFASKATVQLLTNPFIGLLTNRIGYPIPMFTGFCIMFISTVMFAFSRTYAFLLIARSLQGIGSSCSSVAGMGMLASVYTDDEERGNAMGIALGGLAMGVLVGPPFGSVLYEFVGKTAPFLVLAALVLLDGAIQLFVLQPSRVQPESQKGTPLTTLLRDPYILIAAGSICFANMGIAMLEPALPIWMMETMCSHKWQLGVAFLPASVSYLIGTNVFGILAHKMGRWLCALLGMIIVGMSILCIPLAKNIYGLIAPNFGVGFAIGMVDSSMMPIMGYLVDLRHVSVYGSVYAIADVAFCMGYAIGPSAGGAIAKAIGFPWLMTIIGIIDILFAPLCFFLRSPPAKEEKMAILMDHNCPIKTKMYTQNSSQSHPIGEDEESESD
The next data set has as its system male CD rats. The data set can be described thus: Amphetamine induced locomotor activity and stereotypies in the open field arena. The data set is classed as in vivo, rat. The note with it: amphetamine at t=30 min; for normalised total distance travelled, compared to vehicle-amphetamine group / normalised total stereotypic behaviour, compared to vehicle-amphetamine group: listed as (+)-β-DHTBZ. Here is the method:
Resulting locomotor activity was evaluated in 3 min bins and as a total over the testing period. […] Resulting stereotypic activity was evaluated in 3 min bins and as a total over the testing period.

Data set [3] in a line: Pharmacokinetic study, multiple-dose oral administration of tetrabenazine 25 mg once a day to healthy adult male volunteers: plasma levels. The data set is classed as in vivo. The note with it: multiple-dose oral tetrabenazine 25 mg once a day, fasting, N=07, human plasma. Here is the method:
as §1
Table 2 summarises the pharmacokinetic data obtained following multiple-dose oral administration of tetrabenazine at a dose level of 25 mg (fasting, N=07).

The conditions of data set [4]: rat brain, stereochemistry not disclosed; cited from earlier work.
The mark [5] stands for this setting: single-dose oral tetrabenazine 25 mg, fasting.
[6] abbreviates: single-dose oral tetrabenazine 25 mg, fasting, N=08, human plasma.

`COc1cc2c(cc1OC)C1CC(=O)C(CC(C)C)CN1CC2` (racemic) [Tetrabenazine, 1,3,4,6,7,11b-hexahydro-9,10-dimethoxy-3-(2-methylpropyl)-2H-benzo(a)quinolizin-2-one]: the Kel in data set [1] (setting [5]) is on record as 0.19.
As for `COc1cc2c(cc1OC)[C@H]1C[C@@H](O)[C@H](CC(C)C)CN1CC2` [(+)-α-dihydrotetrabenazine], in data set [1], the “status as metabolite of tetrabenazine in humans” value (shortened to “status as metabolite”) was “minor metabolites”. In data set [1] (setting [5]), this molecule registered a Kel of 0.17. Besides, the “more active than the (+)-β-isomer” value in data set [2] (earlier findings, as worded) was 3- to 4 times.
Regarding `COc1cc2c(cc1OC)[C@H]1C[C@H](O)[C@H](CC(C)C)CN1CC2` [(+)-β-dihydrotetrabenazine, (S,R,R)-3-isobutyl-9,10-dimethyloxy-1,3,4,5,7,11b-hexahydro-2H-pyrido[2,1-a]isoquinolin-2-ol], the “status as metabolite” value in data set [1] is listed as “major metabolites; also recorded: main metabolites”. For the same molecule, in data set [1] (setting [5]), the Kel is given as 0.13. In the data set on male CD rats (2.5 mg/kg at t=0 min), the “normalised total stereotypic behaviour, compared to vehicle-vehicle group” value is reported as “significantly different”; the “normalised total distance travelled, compared to vehicle-amphetamine group” value is “lower locomotor activity”; the “normalised total stereotypic behaviour, compared to vehicle-amphetamine group” value is on record as “significantly different; also recorded: reduced stereotypic behaviour”. In the data set with male CD rats (5 mg/kg at t=0 min), the “normalised total stereotypic behaviour, compared to vehicle-vehicle group” value was “significantly different”; the “normalised total distance travelled, compared to vehicle-amphetamine group” value is “lower locomotor activity”; the “normalised total stereotypic behaviour, compared to vehicle-amphetamine group” value was “significantly different; also recorded: reduced stereotypic behaviour”.
Consider `COc1cc2c(cc1OC)[C@@H]1C[C@H](O)[C@@H](CC(C)C)CN1CC2` [(−)-α-dihydrotetrabenazine], for which, in data set [1], the “status as metabolite” value was “major metabolites; also recorded: main metabolites”. Besides, in data set [1] (setting [5]), the Kel worked out at 0.10.
In general, Cmax refers to the maximum level reached in the sampled fluid or tissue. Broadly, the AUC(0-t) is the area under the concentration-time curve up to a stated or last time point. Higher therefore signals more exposure. As for `COc1cc2c(cc1OC)[C@@H]1C[C@@H](O)[C@@H](CC(C)C)CN1CC2` [(−)-β-dihydrotetrabenazine], the “status as metabolite” value in data set [1] is “minor metabolites”. The molecule also yielded a Cmax in data set [1] (single dose study, tetrabenazine administered to adult male humans) of 5.28 ng/mL. Also, the “area under the curve (AUC)” value in data set [1] (single dose study, tetrabenazine administered to adult male humans (unit not given)) came to 16.28. In addition, in data set [1] (setting [6]), the “AUC(0-inf.)” value was found to be 18.77 ng·h/mL, the “AUC(0-t)” value turned out to be 16.28 ng·h/mL, the highest concentration (Cmax) amounted to 5.28 ng/mL and the “Extrapolated AUC” value is recorded as 17.66%. Besides, in data set [1] (setting [6]), the “Half-life (Mean)” value worked out at 12.98 h and the “Tmax Mean” value is given as 1.03 h. This molecule returned a Kel in data set [1] (setting [5]) of 0.45. In addition, in data set [3], the area under the curve AUC(0-t) amounted to 25.17 ng·h/mL, the Cmaxss stood at 7.78 ng/mL, the Cminss was 0.16 ng/mL and the Ctss is 0.57 ng/mL. For the same molecule, the “Tmaxss Mean” value in data set [3] is recorded as 97.11 h.
On to `COc1cc2c(cc1OC)C1CC(O)C(CC(C)C)CN1CC2` (stereo not shown) [dihydrotetrabenazine, 2-hydroxy-3-(2-methylpropyl)-1,3,4,6,7,11b-hexahydro-9,10-dimethoxy-benzo(a)quinolizine], for which, in data set [4], the “crossing of the blood-brain barrier” value was “able to cross the blood-brain barrier”.
Take α-dihydrotetrabenazine: the “higher affinity than the β-isomer” value in data set [2] (racemic α- versus racemic β-dihydrotetrabenazine, in vitro) was 3- to 4 fold.

(Values after patent US12521377B2, “Uses of (+)-B-dihydrotetrabenazine in methods of treating movement disorder” (ADEPTIO PHARMACEUTICALS LIMITED, priority 2017, dated 2026).)
